What all share (format): cell-based, human
Data set [1] in a line: Proliferation/cytotoxicity assay (sulphorhodamine B) on Hs-68 fibroblast. As to conditions: human, Hs-68 foreskin fibroblast cells; Hs-68 fibroblast, incubation 72 h; read-out: IC50 on growth (cytotoxic effect).
For data set [2], the system named is Hs-68 cells. Described as above. To be noted: Hs-68, compared with dithranol.
Data set [3] in a line: Proliferation/cytotoxicity assay (sulphorhodamine B) on PIG1 melanocyte. As to conditions: human, PIG1 immortalized epidermal melanocyte cells; PIG1 melanocyte, incubation 72 h; read-out: IC50 on growth (cytotoxic effect).
Data set [4] has as its system PIG1 cells. Described as above. As to conditions: PIG1, compared with dithranol.

Values joined by “and” are separate entries in the source; they are usually repeats but may differ in a detail not shown here. Identical values can stand only once.

In general, IC50 refers to the concentration at which inhibition is half-maximal.

For the compound `O=C(O)c1cc(O)c2ccccc2c1O` [DHNA, 1,4-dihydroxy-2-naphthoic acid], the half-inhibitory concentration (IC50) at 72 h in data set [1] is 226 µM and 46.2 µg/mL; in data set [3], 24 µM and 4.9 µg/mL. For the same compound, in data set [2], the “less cytotoxicity on fibroblasts than dithranol” value is listed as ~ 8 times. The “less cytotoxicity on melanocytes than dithranol” value in data set [4] is ~ 10 times.
As to `O=C1c2c(O)cccc2Cc2cccc(O)c21` [Dithranol, dithranol, reference compound], the IC50 at 72 h in data set [1] is 27.4 µM and 6.2 µg/mL; in data set [3], 2.34 µM and 0.53 µg/mL.

These data come from article PMC3638593, “1,4-dihydroxy-2-naphthoic Acid Induces Apoptosis in Human Keratinocyte: Potential Application for Psoriasis Treatment” (Evidence-based Complementary and Alternative Medicine : eCAM, 2013).
